The species entered for experiment [1] is Mus musculus. In words: Inhibition of LPS-induced TNF-alpha production in mice after 30 min peroral dose. The class given is functional. As to conditions: po, 0.5 h.
For experiment [2], the target named is T1, Phosphodiesterase 4 (Homo sapiens, UniProt P27815+Q08499+Q07343+Q08493). Kind of experiment: Inhibition of phosphodiesterase 4. The class given is protein assay.
Experiment [3] has as its target T1, Phosphodiesterase 4. Kind of experiment: Inhibition of rolipram binding to phosphodiesterase 4. It counts as protein assay.

By ED50 is commonly meant the dose at which the effect has come halfway, by size or by number of responders. `COc1ccc(C(=O)Nc2c(Cl)cncc2Cl)cc1OC1CCCC1` yielded an ED50 in experiment [1] of 0.72 mg/kg.

One may read the IC50 as the concentration that inhibits the measured activity by half. Molecule `COc1cc2cc(CO)c(CO)c(-c3ccnc(-n4nc(-c5cccnc5)c5ccccc5c4=O)c3)c2cc1OC.Cl` showed a 50% inhibitory concentration (IC50) in experiment [2] of 0.7 nM. The same molecule had an ED50 in experiment [1] of 1.2 mg/kg.

The Ki is the dissociation constant of the complex between target and ligand, obtained from inhibition or displacement. Higher therefore signals a looser hold on the target. In experiment [2], `COc1cc2c(cc1OC)C(c1ccnc(-n3nc(-c4cccnc4)c4ccccc4c3=O)c1)=N[C@H](CO)C2.Cl` showed a half-maximal inhibitory concentration (IC50) of 1 nM. The inhibition constant (Ki) in experiment [3] came out at 6.5 nM. In addition, in experiment [1], the ED50 was 0.52 mg/kg.

With `COc1cc2c(cc1OC)C(c1ccnc(-n3ccc4c(OCCN5CCOCC5)cccc4c3=O)c1)=N[C@H](CO)C2.Cl`, the IC50 in experiment [2] was 0.5 nM. The Ki in experiment [3] is 1.8 nM. This molecule also showed an ED50 in experiment [1] of 0.13 mg/kg.

In experiment [2], `COc1cc2c(cc1OC)C(c1ccnc(-n3nc(Cc4cccnc4)c4ccccc4c3=O)c1)=N[C@H](CO)C2.Cl` gave a half-inhibitory concentration (IC50) of 2 nM. This molecule registered a Ki in experiment [3] of 3.1 nM.

Turning to `COc1cc2cc(CO)cc(-c3ccnc(-n4nc(-c5cccnc5)c5ccccc5c4=O)c3)c2cc1OC.Cl`, the Ki in experiment [3] came out at 3 nM.

In the case of `COc1cc2cc(CO)nc(-c3ccnc(-n4nc(-c5nccs5)c5ccccc5c4=O)c3)c2cc1OC.Cl`, the IC50 in experiment [2] turned out to be 0.3 nM. This molecule had a Ki in experiment [3] of 1.7 nM. The molecule further showed an ED50 in experiment [1] of 0.26 mg/kg.

In experiment [2], `COc1cc2c(cc1OC)C(c1ccnc(-n3nc(-c4cncnc4)c4ccccc4c3=O)c1)=N[C@H](CO)C2.Cl` displayed an IC50 of 3 nM. In experiment [3], the Ki is 5.4 nM.

Turning to `COc1cc2nc(CO)c(CO)c(-c3ccnc(-n4nc(-c5cccnc5)c5ccccc5c4=O)c3)c2cc1OC.Cl`, in experiment [2], the half-inhibitory concentration (IC50) is given as 70 nM. Moreover, the Ki in experiment [3] came to 120 nM.

For `COc1cc2c(cc1OC)C(c1ccnc(-n3ccc4c(OCc5cccnc5)cccc4c3=O)c1)=N[C@H](CO)C2.Cl`, the IC50 in experiment [2] stood at 0.4 nM. In experiment [3], this molecule showed a Ki of 1.5 nM. This molecule also had an ED50 in experiment [1] of 2.4 mg/kg.

`COc1cc2cc(CO)nc(-c3ccnc(-n4nc(-c5cccs5)c5ccccc5c4=O)c3)c2cc1OC.Cl`: in experiment [2], the IC50 stood at 0.3 nM. Moreover, the Ki in experiment [3] was determined as 1.4 nM. This molecule also came in with an ED50 in experiment [1] of 1.6 mg/kg.

For the molecule `COc1cc2cc(CO)nc(-c3ccnc(-n4nc(-c5cccnc5)c5ccccc5c4=O)c3)c2cc1OC.Cl`, the IC50 in experiment [2] stood at 0.6 nM. Also, the Ki in experiment [3] stood at 1.4 nM.

In turn, `COc1ccc(C2CNC(=O)C2)cc1OC1CCCC1` (stereo not drawn) [ROLIPRAM] returned an ED50 in experiment [1] of 2.6 mg/kg.

For the origin of these results see ChEMBL document CHEMBL1136106, “Synthesis and biological activities of 1-pyridylisoquinoline and 1-pyridyldihydroisoquinoline derivatives as PDE4 inhibitors” (Bioorg Med Chem Lett, 2003).
